According to PMC4626104, “Inhibition on Proteasome β1 Subunit Might Contribute to the Anti-Cancer Effects of Fangchinoline in Human Prostate Cancer Cells” (PLoS ONE, 2015):

Columns and labels:
Type in all cases: cell-based, human
[1] = test system: PC-3 cells with over-expression of proteasome β1 subunit; test: MTT assay in PC-3 cells over-expressing proteasome β1 subunit (PSMB6 plasmid); conditions: 24 h, 48 h or 72 h treatment
Experimental: The inhibitive effects of fangchinoline on proliferation of PC-3 cells or LnCap cells was observed by checking cell viability of cells using MTT assay as described before. Briefly, cells were seeded in 96-well plates at a density of 5×10^4 cells/mL for PC-3 cell and 4×10^4 cells/mL for LnCap cells. After overnight culture, the media were changed into fresh media containing various concentrations of fangchinoline or 0.1% DMSO (solvent control) for 24, 48 h or 72 h. Cell viability was evaluated by measuring the mitochondrial-dependent conversion of the yellow tetrazolium salt MTT to purple formazan crystals by metabolic active cells. The optical density (proportional to the number of live cells) was assessed with a Microplate Reader Bio-Rad 550 at 570 nm. IC50 value (half-maximal inhibitory concentration) was calculated by the Logit method.
Cells with over-expression of proteasome β1 subunit were obtained by transfection with pcDNA3.1 plasmid encoding full-length human PSMB6 cDNA as described before. For plasmid transfection, 5 × 10^5 cells were seeded into each well of a six-well plate until the cells reached approximately 80% confluence after cultured for 24 h. […]

[2] = test system: caspase-3, PARP, LC-3B in PC-3 cells; test: Western blotting of apoptosis and autophagy markers in PSMB6 knockdown PC-3 cells; conditions: 40 μM, 24 h
Experimental: Western blotting assay was conducted as described before. Briefly, an aliquot of protein (100 μg) sample was loaded onto a 12% SDS gel, separated electrophoretically, and transferred to a Nitrocellulose membrane (Bio-Rad). After the membrane was incubated with 10 mM TBS with […] and 5% dehydrated skim milk to block nonspecific protein binding, the membrane was incubated with primary antibodies overnight at 4°C. The primary antibodies (all from Cell Signaling Technology) used were rabbit polyclonal antibody against human IκB-α (#4812, 1:400), Bax (#2772, 1:400), proteasome β1 subunit (PSMB6) (#13267, 1:500), β-actin (#4967, 1:400) and mouse monoclonal antibody against human p27 Kip1 (#3688, 1:400) or ubiquitin (#3936, 1:1000). After TBS washes, blots were then incubated with secondary antibody for 2 h at room temperature at a 1:1000 dilution and then visualized using chemiluminescence (Pierce Biotechnology, Rockford, IL, USA). The secondary antibodies used were HRP-linked goat anti-rabbit IgG (#7074) and HRP-linked horse anti-mouse IgG (#7076), both from Cell Signaling Technology.
Validated siRNAs for PSMB6 (Sigma-Aldrich) were transfected into PC-3 cells by using Lipofectamine RNAiMAX (Invitrogen) according to the manufacturer’s protocol. Scrambled negative control siRNAs (Sigma-Aldrich) were used as negative control. […]

PC-3 cells [3] = test: Flow cytometric analysis of apoptosis (Annexin V/PI) in PC-3 cells; conditions: 24 h
Experimental: (§1) The induction of cell cycle arrest and apoptosis by fangchinoline in PC-3 cells was observed by using flow cytometric analysis as described in our previous reports. Briefly, for flow cytometry analysis of cell cycle, cells were collected after treatment, washed with PBS and then fixed with 70% ethanol at 4°C for overnight. After PBS washes, cells were re-suspended in staining buffer (10 mg/mL RNase A and […] propidium iodide in cold PBS) for 30 min in dark at room temperature and then analyzed using FACSCalibur Flow Cytometer. For flow cytometric analysis of apoptosis, Alexa Fluor 488 Annexin V & PI /Dead cell Apoptosis Kit (Invitrogen) was used. Cells were collected after treatment, washed with PBS and then resuspended in binding buffer and then incubated with Annexin V-FITC and propidium iodide for 15 min in dark at room temperature. Then, flow cytometric analysis was conducted and data analysis was performed with CellQuest software.

PC-3 cells [4] = test: Flow cytometric analysis of cell cycle in PC-3 cells; conditions: 24 h
Experimental: as §1

COc1ccc2cc1Oc1ccc(cc1)C[C@H]1c3cc(c(OC)cc3CCN1C)Oc1c(O)c(OC)cc3c1[C@H](C2)N(C)CC3 [fangchinoline]
Sensitivity of cells with over-expression of proteasome β1 subunit to cytotoxicity vs wild type and negative control [1]: more sensitive | Effect of knockdown of proteasome β1 subunit on markers of apoptosis (caspase-3, PARP) and autophagy (LC-3B) [2]: ameliorated fangchinoline-induced apoptosis and autophagy | Percentage (%) of apoptotic cells (Annexin^+/PI^+) (PC-3 cells [3]; 5 μM): 6.74±1.14 % | Percentage (%) of apoptotic cells (Annexin^+/PI^+) (PC-3 cells [3]; 8 μM): 10.79±0.51 % | Percentage (%) of apoptotic cells (Annexin^+/PI^+) (PC-3 cells [3]; 12 μM): 13.53±0.19 % | Percentage (%) of apoptotic cells (Annexin^+/PI^+) (PC-3 cells [3]; 18 μM): 28.10±5.93 % | Percentage (%) of apoptotic cells (Annexin^+/PI^+) (PC-3 cells [3]; 27 μM): 37.52±4.04 % | Percentage (%) of apoptotic cells (Annexin^+/PI^+) (PC-3 cells [3]; 40 μM): 49.77±2.23 % | Percentage (%) of cells in G0/G1 phase (PC-3 cells [4]; 5 μM): 60.17±1.49% | Percentage (%) of cells in G2/M phase (PC-3 cells [4]; 5 μM): 11.21±2.45 % | Percentage (%) of cells in S phase (PC-3 cells [4]; 5 μM): 28.62±2.31% | Percentage (%) of cells in G0/G1 phase (PC-3 cells [4]; 8 μM): 64.25±1.57 % | Percentage (%) of cells in G2/M phase (PC-3 cells [4]; 8 μM): 11.99±2.23 % | Percentage (%) of cells in S phase (PC-3 cells [4]; 8 μM): 23.76±2.77% | Percentage (%) of cells in G0/G1 phase (PC-3 cells [4]; 12 μM): 63.03±0.73 % | Percentage (%) of cells in G2/M phase (PC-3 cells [4]; 12 μM): 11.59±1.99 % | Percentage (%) of cells in S phase (PC-3 cells [4]; 12 μM): 25.37±1.75 % | Percentage (%) of cells in G0/G1 phase (PC-3 cells [4]; 18 μM): 67.63±3.34 % | Percentage (%) of cells in G2/M phase (PC-3 cells [4]; 18 μM): 8.88±2.91% | Percentage (%) of cells in S phase (PC-3 cells [4]; 18 μM): 23.48±2.14 % | Percentage (%) of cells in G0/G1 phase (PC-3 cells [4]; 27 μM): 75.16±1.95 % | Percentage (%) of cells in G2/M phase (PC-3 cells [4]; 27 μM): 8.65±1.81% | Percentage (%) of cells in S phase (PC-3 cells [4]; 27 μM): 16.19±0.63 % | Percentage (%) of cells in G0/G1 phase (PC-3 cells [4]; 40 μM): 80.14±1.55 % | Percentage (%) of cells in G2/M phase (PC-3 cells [4]; 40 μM): 7.99±1.43% | Percentage (%) of cells in S phase (PC-3 cells [4]; 40 μM): 11.88±0.56 %
